# From US20230183243A1, “HETEROARYL DERIVATIVES AND PHARMACEUTICAL COMPOSITION COMPRISING SAME AS ACTIVE INGREDIENT” (VORONOI INC., priority 2019, published 2023)
# How the values were obtained:
# [1] = target: T1, TTK (Homo sapiens, UniProt P33981); experiment: TTK enzyme activity, ADP-Glo kinase assay; assay type: biochemical; design: purchased SignalChem T20-10G; conditions: purified human TTK, ATP 10 μM, 25° C., 2 hours
# T1 sequence (P33981 1-857): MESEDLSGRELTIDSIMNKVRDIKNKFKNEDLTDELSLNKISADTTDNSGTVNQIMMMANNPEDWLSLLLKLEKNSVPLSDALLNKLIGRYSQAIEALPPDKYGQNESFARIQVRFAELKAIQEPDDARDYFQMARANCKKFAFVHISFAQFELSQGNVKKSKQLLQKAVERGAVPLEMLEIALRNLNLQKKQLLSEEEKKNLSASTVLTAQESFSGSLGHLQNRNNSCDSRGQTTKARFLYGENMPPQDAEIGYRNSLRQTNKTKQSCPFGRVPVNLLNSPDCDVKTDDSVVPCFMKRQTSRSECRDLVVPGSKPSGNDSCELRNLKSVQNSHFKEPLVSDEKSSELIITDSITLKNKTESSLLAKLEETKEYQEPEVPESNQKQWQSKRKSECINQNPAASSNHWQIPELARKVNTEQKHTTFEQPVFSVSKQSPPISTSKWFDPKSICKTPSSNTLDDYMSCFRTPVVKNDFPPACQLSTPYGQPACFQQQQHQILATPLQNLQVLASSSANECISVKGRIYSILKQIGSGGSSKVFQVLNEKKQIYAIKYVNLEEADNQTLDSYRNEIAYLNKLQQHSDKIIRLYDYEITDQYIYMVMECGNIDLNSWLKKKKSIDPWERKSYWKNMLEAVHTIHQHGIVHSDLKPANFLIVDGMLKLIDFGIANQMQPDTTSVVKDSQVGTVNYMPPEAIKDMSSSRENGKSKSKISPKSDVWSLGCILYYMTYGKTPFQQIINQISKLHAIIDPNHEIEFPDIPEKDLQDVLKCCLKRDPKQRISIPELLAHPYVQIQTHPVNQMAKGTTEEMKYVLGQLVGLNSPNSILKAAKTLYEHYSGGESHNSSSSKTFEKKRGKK
# Outline: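 Purified human TTK (25 ng) incubated with 10 μM ATP and substrate (0.2 μg) for 2 h at 25 °C in Tris-HCl pH 7.4, MgCl2, BSA, DTT buffer. ADP formation read by ADP-Glo; inhibition calculated against untreated solvent control.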
# [2] = test system: MDA-MB-231 cells; experiment: Inhibition of proliferation of triple-negative breast cancer cells, CellTiter-Glo; assay type: cell-based; conditions: Homo sapiens, 120 h; MDA-MB-231, cultured for 5 days
# Outline: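 MDA-MB-231 cells pre-cultured 24 h (5% CO2, 37 °C), then exposed to compound for 5 days at 12 three-fold dilutions, final 10 μM to 0.05 nM. Viability read by CellTiter-Glo luminescence after 10 min at 37 °C; growth inhibition calculated relative to untreated solvent-control cells.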
# [3] = test system: SHP-77; experiment: Inhibition of proliferation of small cell lung cancer cells, CellTiter-Glo; assay type: cell-based; conditions: Homo sapiens, SHP77, 120 h; SHP-77, cultured for 5 days
# Experimental: Specifically, the following test was performed to evaluate the inhibitory activity of the compound according to the present invention against the cell proliferation in the SCLC cells.
# To check an inhibitory ability of cell growth in one SCLC cell line, a test was performed as follows. Cells were seeded in 180 μL of a culture broth at a density of 2,000 to 3,000 cells/well in a white clear bottom 96-well plate (Corning) according to the growth ability of each cell, and then cultured for 24 hours under conditions of 5% CO2 and 37° C. Thereafter, the compound was prepared by diluting a 10 mM stock solution three-fold with 100% DMSO at a total of 12 concentrations so that a peak concentration of the compound was in a range of 10 mM to 0.05 μM, and the diluted compound was then diluted in each cell culture medium so that a final concentration of the compound was in a range of 100 μM to 0.5 nM. 20 μL of a diluted solution diluted with a medium was added to the cell solution in which cells were seeded in the 96-well plate on the previous day so that a final concentration of the diluted solution was in a range of 10 μM to 0.05 nM. Each of the cells was cultured for 5 days. To check cell viability, a mixture provided in aCellTiter-Glo® Luminescent Cell Viability Assay Kit (Promega) was added to each of the cultured cell media, and cultured for another 10 minutes under a condition of 37° C. Then, a degree of luminescence (fluorescence) was measured. A degree of inhibition of the cell growth according to the treatment concentration of each of the compounds was calculated based on the fluorescence of the solvent control cells which were not treated with the compound. In this case, the concentration of each of the compounds inhibiting 50% of the cell growth was determined to be a GI50 (nM) value, and calculated using Prism (Version 7.01; GraphPad) software.
IC50 [1] [nM],GI50 [2] [nM],GI50 [3] [nM],SMILES
< 50,< 100,< 100,"COc1cc(-c2ccnn2C)ccc1Nc1nc(C2CC2)c2c(C#N)c[nH]c2n1 [Example 111, 4-cyclopropyl-2-((2-methoxy-4-(1-methyl-1H-pyrazol-5-yl)phenyl)amino)-7H-pyrrolo[2,3-d] pyrimidine-5-carbonitrile]"
< 50,< 100,< 100,"N#Cc1c[nH]c2nc(Nc3ccc(N4CCCS4(=O)=O)cc3)nc(NC3CCOCC3)c12 [Example 166, 2-((4-(1,1-dioxidoisothiazolidin-2-yl)phenyl)amino)-4-((tetrahydro-2H-pyran-4-yl)amino)-7H-pyrrolo[2,3-d] pyrimidine-5-carbonitrile]"
50 to 200,100 to 1000,100 to 1000,"COc1cc(N2CCCCS2(=O)=O)ccc1Nc1nc(NC2CCCC2)c2c(C(F)(F)F)c[nH]c2n1 [Example 177, 2-(4-((4-(cyclopentylamino)-5-(trifluoromethyl)-7H-pyrrolo[2,3-d]pyrimidin-2-yl)amino)-3-methoxyphenyl)-1,2-thiazinane 1,1-dioxide]"
< 50,< 100,< 100,"COc1cc(-n2ccnc2C)ccc1Nc1nc(NC2CCOCC2)c2c(C#N)c[nH]c2n1 [Example 93, 2-((2-methoxy-4-(2-methyl-1H-imidazol-1-yl)phenyl)amino)-4-((tetrahydro-2H-pyran-4-yl)amino)-7H-pyrrolo[2,3-d] pyrimidine-5-carbonitrile]"
50 to 200,< 100,< 100,"COc1cc(Nc2nc(NC3CCCC3)c3c(C#N)c[nH]c3n2)ccc1-c1cnn(C)c1 [Example 136, 4-(cyclopentylamino)-2-((3-methoxy-4-(1-methyl-1H-pyrazol-4-yl)phenyl)amino)-7H-pyrrolo[2,3-d] pyrimidine-5-carbonitrile]"
< 50,< 100,< 100,"Cn1cc(-c2ccc(Nc3nc(NC4C[C@H]5CC[C@@H]4C5)c4c(C#N)c[nH]c4n3)c3c2OCCO3)cn1 (stereo partly drawn) [Example 147, 4-(((1R,4S)-bicyclo[2.2.1]heptan-2-yl)amino)-2-((8-(1-methyl-1H-pyrazol-4-yl)-2,3-dihydrobenzo[b][1,4]dioxin-5-yl)amino)-7H-pyrrolo[2,3-d] pyrimidine-5-carbonitrile]"
200 to 1000,100 to 1000,100 to 1000,"Cn1nccc1-c1ccc(Nc2nc(NC3CCCC3)c3c(C(F)(F)F)c[nH]c3n2)c2c1OCCO2 [Example 133, N^4-cyclopentyl-N^2-(8-(1-methyl-1H-pyrazol-5-yl)-2,3-dihydrobenzo[b][1,4]dioxin-5-yl)-5-(trifluoromethyl)-7H-pyrrolo[2,3-d] pyrimidine-2,4-diamine]"
< 50,< 100,< 100,"COc1cc(-c2ccnn2C)ccc1Nc1nc(NC2CCC(F)(F)C2)c2c(C#N)c[nH]c2n1 (stereo not drawn) [Example 110, 4-((3,3-difluorocyclopentyl)amino)-2-((2-methoxy-4-(l-methyl-1H-pyrazol-5-yl)phenyl)amino)-7H-pyrrolo[2,3-d] pyrimidine-5-carbonitrile]"
< 50,< 100,< 100,"N#Cc1c[nH]c2nc(Nc3ccc(N4CCCCS4(=O)=O)cc3)nc(NC3CCOCC3)c12 [Example 164, 2-((4-(1,1-dioxido-1,2-thiazinan-2-yl)phenyl)amino)-4-((tetrahydro-2H-pyran-4-yl)amino)-7H-pyrrolo[2,3-d] pyrimidine-5-carbonitrile]"
< 50,< 100,< 100,"COCCNc1nc(Nc2ccc(-n3ccnc3C)cc2OC)nc2[nH]cc(C#N)c12 [Example 98, 2-((2-methoxy-4-(2-methyl-1H-imidazol-1-yl)phenyl)amino)-4-((2-methoxyethyl)amino)-7H-pyrrolo[2,3-d] pyrimidine-5-carbonitrile]"
< 50,< 100,< 100,"N#Cc1c[nH]c2nc(Nc3cccc4c3OCCO4)nc(NC3CCOCC3)c12 [Example 170, 2-((2,3-dihydrobenzo[b][1,4]dioxin-5-yl)amino)-4-((tetrahydro-2H-pyran-4-yl)amino)-7H-pyrrolo[2,3-d] pyrimidine-5-carbonitrile]"
< 50,< 100,< 100,"COc1cc(-c2nncn2C)ccc1Nc1nc(NC2CCOC(C)(C)C2)c2c(C#N)c[nH]c2n1 (stereo not shown) [Example 143, 4-((2,2-dimethyltetrahydro-2H-pyran-4-yl)amino)-2-((2-methoxy-4-(4-methyl-4H-1,2,4-triazol-3-yl)phenyl)amino)-7H-pyrrolo[2,3-d] pyrimidine-5-carbonitrile]"
< 50,< 100,< 100,"COC[C@@H](C)Nc1nc(Nc2ccc(-c3ccnn3C)cc2OC)nc2[nH]cc(C#N)c12 [Example 168, (R)-2-((2-methoxy-4-(1-methyl-1H-pyrazol-5-yl)phenyl)amino)-4-((1-methoxypropan-2-yl)amino)-7H-pyrrolo[2,3-d] pyrimidine-5-carbonitrile]"
< 50,< 100,< 100,"Cn1nccc1-c1ccc(Nc2nc(NC3CCOC(C)(C)C3)c3c(C#N)c[nH]c3n2)c2c1OCCO2 (stereo not shown) [Example 109, 4-((2,2-dimethyltetrahydro-2H-pyran-4-yl)amino)-2-((8-(1-methyl-1H-pyrazol-5-yl)-2,3-dihydrobenzo[b][1,4]dioxin-5-yl)amino)-7H-pyrrolo[2,3-d] pyrimidine-5-carbonitrile]"
< 50,< 100,< 100,"COc1cc(-c2ccnn2C)ccc1Nc1nc(NC2CCCC2)c2c(C#N)c[nH]c2n1 [Example 16, 4-(cyclopentylamino)-2-((2-methoxy-4-(1-methyl-1H-pyrazol-5-yl)phenyl)amino)-7H-pyrrolo[2,3-d] pyrimidine-5-carbonitrile]"
< 50,< 100,< 100,"Cn1cc(-c2ccc(Nc3nc(NC4CCOCC4)c4c(C#N)c[nH]c4n3)c3c2OCCO3)cn1 [Example 89, 2-((8-(1-methyl-1H-pyrazol-4-yl)-2,3-dihydrobenzo[b][1,4]dioxin-5-yl)amino)-4-((tetrahydro-2H-pyran-4-yl)amino)-7H-pyrrolo[2,3-d] pyrimidine-5-carbonitrile]"
–,> 1000,> 1000,"COc1cc(-c2ccnn2C)ccc1Nc1nc(NC2COC2)c2c(C#N)c[nH]c2n1 [Example 161, 2-((2-methoxy-4-(1-methyl-1H-pyrazol-5-yl)phenyl)amino)-4-(oxetan-3-ylamino)-7H-pyrrolo[2,3-d] pyrimidine-5-carbonitrile]"
–,> 1000,> 1000,"Cn1nccc1-c1ccc(Nc2nc(NC3COC3)c3c(C#N)c[nH]c3n2)c2c1OCCO2 [Example 160, 2-((8-(1-methyl-1H-pyrazol-5-yl)-2,3-dihydrobenzo[b][1,4]dioxin-5-yl)amino)-4-(oxetan-3-ylamino)-7H-pyrrolo[2,3-d] pyrimidine-5-carbonitrile]"
